Experimental data as given in the CheMixHub viscosity set.

Experiment: xn = mol fraction of the nth substance listed

C=CC(=O)OC + CC#N
viscosity [mPa·s], 100 kPa
Details | 293.15 K | 298.15 K | 303.15 K | 308.15 K | 313.15 K | 318.15 K
x2 = 0.0591 | 0.4934 | 0.4511 | 0.4118 | 0.3786 | 0.3488 | 0.3221
x2 = 0.1171 | 0.4832 | 0.4422 | 0.4042 | 0.3721 | 0.3431 | 0.3171
x2 = 0.17 | 0.474 | 0.4343 | 0.3976 | 0.3664 | 0.3383 | 0.313
x2 = 0.2356 | 0.4627 | 0.4247 | 0.3896 | 0.3597 | 0.3327 | 0.3083
x2 = 0.2977 | 0.4524 | 0.416 | 0.3824 | 0.3537 | 0.3278 | 0.3043
x2 = 0.3615 | 0.4422 | 0.4074 | 0.3754 | 0.348 | 0.3232 | 0.3007
x2 = 0.4343 | 0.431 | 0.398 | 0.3679 | 0.3419 | 0.3185 | 0.2971
x2 = 0.5014 | 0.4212 | 0.3899 | 0.3614 | 0.3368 | 0.3146 | 0.2943
x2 = 0.5738 | 0.4112 | 0.3818 | 0.3551 | 0.332 | 0.311 | 0.2918
x2 = 0.6537 | 0.4009 | 0.3736 | 0.349 | 0.3274 | 0.3078 | 0.2897
x2 = 0.7623 | 0.3881 | 0.3635 | 0.3417 | 0.3223 | 0.3046 | 0.2883
x2 = 0.8155 | 0.3823 | 0.3592 | 0.3387 | 0.3204 | 0.3037 | 0.2882
x2 = 0.9074 | 0.3729 | 0.3523 | 0.3342 | 0.3179 | 0.303 | 0.2889

C=CC(=O)OCCCC + CC#N
viscosity [mPa·s], 100 kPa
Details | 293.15 K | 298.15 K | 303.15 K | 308.15 K | 313.15 K | 318.15 K
x2 = 0.061 | 0.8625 | 0.8036 | 0.7492 | 0.6997 | 0.6541 | 0.611
x2 = 0.1168 | 0.8292 | 0.7725 | 0.7202 | 0.6725 | 0.6285 | 0.587
x2 = 0.1832 | 0.7901 | 0.7361 | 0.6864 | 0.641 | 0.5992 | 0.5596
x2 = 0.2571 | 0.7473 | 0.6964 | 0.6497 | 0.607 | 0.5677 | 0.5304
x2 = 0.3094 | 0.7174 | 0.6687 | 0.6241 | 0.5834 | 0.5459 | 0.5103
x2 = 0.3825 | 0.6761 | 0.6306 | 0.589 | 0.551 | 0.516 | 0.4829
x2 = 0.4563 | 0.6351 | 0.5928 | 0.5542 | 0.519 | 0.4866 | 0.4558
x2 = 0.5282 | 0.5958 | 0.5566 | 0.521 | 0.4885 | 0.4585 | 0.4301
x2 = 0.5779 | 0.569 | 0.532 | 0.4985 | 0.4678 | 0.4395 | 0.4126
x2 = 0.6483 | 0.5319 | 0.4979 | 0.4672 | 0.4391 | 0.4132 | 0.3886
x2 = 0.7299 | 0.49 | 0.4596 | 0.4322 | 0.4071 | 0.384 | 0.362
x2 = 0.8143 | 0.4484 | 0.4216 | 0.3977 | 0.3758 | 0.3556 | 0.3364
x2 = 0.9182 | 0.3998 | 0.3778 | 0.3584 | 0.3405 | 0.3241 | 0.3086

CC(C)CO + CC#N
viscosity [mPa·s]
Details | x2 = 0.1676 | x2 = 0.3118 | x2 = 0.4373 | x2 = 0.5476 | x2 = 0.6442 | x2 = 0.7304 | x2 = 0.8083 | x2 = 0.8784 | x2 = 0.942 | x2 = 0.9432
298.15 K, 101.3 kPa | 1.788 | 1.186 | 0.87 | 0.692 | 0.567 | 0.483 | 0.434 | 0.395 | 0.371 | –
303.15 K, 101 kPa | – | – | – | – | – | – | – | – | – | 0.5569
303.15 K, 101.3 kPa | 1.582 | 1.064 | 0.793 | 0.634 | 0.532 | 0.455 | 0.411 | 0.376 | 0.362 | –
308.15 K, 101.3 kPa | 1.389 | 0.962 | 0.725 | 0.586 | 0.494 | 0.428 | 0.39 | 0.358 | 0.344 | –
313.15 K, 101.3 kPa | 1.232 | 0.869 | 0.664 | 0.548 | 0.461 | 0.405 | 0.373 | 0.342 | 0.324 | –

CCCCCOC(=O)CCC + CC(=O)O
viscosity [mPa·s], 101 kPa
Details | 298.15 K | 313.15 K
x1 = 0.1013 | 1.06 | 0.853
x1 = 0.1499 | 1.04 | 0.836
x1 = 0.2007 | 1.02 | 0.824
x1 = 0.2515 | 1.03 | 0.827
x1 = 0.3014 | 1.03 | 0.833
x1 = 0.4 | 1.04 | 0.833
x1 = 0.4999 | 1.05 | 0.846
x1 = 0.6018 | 1.07 | 0.85
x1 = 0.6919 | 1.08 | 0.859
x1 = 0.804 | 1.08 | 0.86
x1 = 0.8906 | 1.08 | 0.861
x1 = 0.9459 | 1.07 | 0.859

CCCCCOC(C)=O + CC(=O)O
viscosity [mPa·s], 101 kPa
Details | x1 = 0.0945 | x1 = 0.2018 | x1 = 0.3035 | x1 = 0.4048 | x1 = 0.4599 | x1 = 0.5117 | x1 = 0.6074 | x1 = 0.6957 | x1 = 0.7878 | x1 = 0.8912
298.15 K | 1.055 | 1.049 | 0.994 | 0.978 | 1.002 | 1.006 | 0.98 | 0.974 | 0.917 | 0.881
313.15 K | 0.853 | 0.831 | 0.799 | 0.781 | 0.797 | 0.798 | 0.777 | 0.772 | 0.734 | 0.708

Cc1ccccc1O + CC(=O)O
viscosity [mPa·s], 101 kPa
Details | x2 = 0.167 | x2 = 0.3109 | x2 = 0.4361 | x2 = 0.5461 | x2 = 0.6434 | x2 = 0.7302 | x2 = 0.8081 | x2 = 0.8783 | x2 = 0.942
298.15 K | 5.871 | 4.718 | 3.853 | 3.149 | 2.615 | 2.165 | 1.808 | 1.529 | 1.307
308.15 K | 4.539 | 3.776 | 3.151 | 2.619 | 2.204 | 1.86 | 1.595 | 1.328 | 1.139
318.15 K | 3.157 | 2.82 | 2.465 | 2.137 | 1.812 | 1.542 | 1.322 | 1.135 | 0.9519

CCCCCOC(C)=O + CC(=O)OCc1ccccc1
Details | viscosity [mPa·s]
298.15 K, 101 kPa, x1 = 0.5 | 0.9738

CCCCCOC(C)=O + CC(=O)c1ccccc1
298.15 K, 101 kPa
Details | viscosity [mPa·s]
x2 = 0.0465 | 0.802
x2 = 0.0891 | 0.8174

CN(C)CCO + CC(=O)c1ccccc1
viscosity [mPa·s], 101.3 kPa
Details | x2 = 0.0879 | x2 = 0.1782 | x2 = 0.2709 | x2 = 0.3663 | x2 = 0.4644 | x2 = 0.5654 | x2 = 0.6693 | x2 = 0.7762 | x2 = 0.8864
303.15 K | 2.331 | 2.243 | 2.155 | 2.067 | 1.98 | 1.892 | 1.804 | 1.716 | 1.628
313.15 K | 1.952 | 1.882 | 1.811 | 1.741 | 1.67 | 1.6 | 1.529 | 1.459 | 1.388
323.15 K | 1.689 | 1.644 | 1.6 | 1.555 | 1.51 | 1.465 | 1.42 | 1.375 | 1.33

Cc1ccccc1O + CC(=O)c1ccccc1
303.15 K, 101 kPa
Details | viscosity [mPa·s]
x2 = 0.11 | 5.369
x2 = 0.2168 | 4.793
x2 = 0.3155 | 4.305
x2 = 0.4164 | 3.832
x2 = 0.4556 | 3.653
x2 = 0.5575 | 3.206
x2 = 0.6919 | 2.635
x2 = 0.7608 | 2.358
x2 = 0.9488 | 1.668

CCCCCOC(C)=O + CC(C)=O
298.15 K, 101 kPa
Details | viscosity [mPa·s]
x2 = 0.17 | 0.688
x2 = 0.336 | 0.6224

ClCC(Cl)Cl + CC(C)=O
298.15 K, 101 kPa
Details | viscosity [mPa·s]
x2 = 0.212 | 0.91
x2 = 0.366 | 0.799
x2 = 0.497 | 0.677
x2 = 0.611 | 0.577
x2 = 0.704 | 0.509
x2 = 0.779 | 0.456
x2 = 0.837 | 0.411
x2 = 0.949 | 0.347

CC(C)CO + CC(C)O
viscosity [mPa·s], 101 kPa
Details | x2 = 0.2 | x2 = 0.4 | x2 = 0.6 | x2 = 0.8
293.15 K | 3.536 | 3.163 | 2.856 | 2.597
313.15 K | 1.923 | 1.742 | 1.586 | 1.449

CCCCCC + CC(C)O
viscosity [mPa·s], 101 kPa
Details | 298.15 K | 308.15 K
x2 = 0.0486 | 0.318 | 0.26
x2 = 0.1046 | 0.326 | 0.268
x2 = 0.1633 | 0.334 | 0.276
x2 = 0.272 | 0.364 | 0.31
x2 = 0.3138 | 0.377 | 0.33
x2 = 0.3636 | 0.399 | 0.36
x2 = 0.4036 | 0.42 | 0.382
x2 = 0.5026 | 0.496 | 0.451
x2 = 0.563 | 0.557 | 0.508
x2 = 0.6074 | 0.613 | 0.561
x2 = 0.6996 | 0.763 | 0.694
x2 = 0.8182 | 1.06 | 0.934
x2 = 0.9038 | 1.4 | 1.237
x2 = 0.9566 | 1.723 | 1.379
